One molecule from patent publication US9427433B2, “Methods and compositions for enhancing fertility and/or inhibiting pregnancy failure and restoring glucose tolerance” (Queen's University at Kingston, priority 2011, dated 2016) can be followed below.

The test system of test [1] is high fat fed female NZO mice. Briefly: Ovarian histology of macrolide-treated chronically high fat fed NZO mice. Type of test: in vivo, mouse. The settings on record: chronically high fat diet fed NZO mice. The method, then: Statistical differences between groups were measured by two-way analysis of variance (ANOVA) followed by Bonferroni post-hock t-test comparing effect of all tested macrolides on mean follicular structure counts/unit area at 95% confidence. Scale bars=200 μm for B, D, F, G, H, I, J and 50 μm for A, C, E. N=10 (HFD-NZO), 6 per treatment group. A, C and E are higher magnifications of B, D and F respectively. * denoting ovarian cyst(s).
For the comparative evaluation of other macrolide drugs to tacrolimus, mice starting at 7 weeks of age were maintained on the high fat diet for a total of 13 weeks of study period. Mice were entered into the experiments when determined to be glucose intolerant as described above. Methods of drug administration and other experimental methods were as described above.

In test [2] the test system is 60% high fat fed NZO and DIO mice. As to the kind of experiment: Glucose tolerance test after tacrolimus. The settings on record: all treated type 2 diabetic and obese mice; FIG. 16B. The class given is in vivo, mouse. As for the experimental part:
Twenty NZO and DIO/B6 female mice were maintained on a high fat diet consisted of 60% kcal fat, 20% kcal protein and 20% kcal carbohydrate, with a total energy mass of 5.24 kcal/gm (D12492, Research Diets Inc.; […] Tacrolimus (Prograf (5 mg/ml), Astellas) was administered subcutaneously in a dose of 0.1 mg/kg q2d in 0.2 ml saline for three weeks to the obese and glucose intolerant NZO and DIO mice starting at the age of 10 weeks after which animals were mated to males of the same strain and pregnancy was dated from the morning of the positive detection of vaginal (copulation) plug. See FIG. 2. […] Briefly, basal glucose levels were measured for conscious mice individually caged in 1000 cc plastic mouse caging using a one-touch ultra glucose strips and meter (Acqui-check Aviva, Roche, Montreal, Canada) and approximately 30 microliters of blood obtained via tail venipuncture prior to fasting for six hours in cages equipped with hardwood bedding. Fasting blood glucose was recorded at the end of the six hours fasting period. […] Then after, blood glucose was recorded at 15, 30, 45, 60, 90 and 120 minutes respectively. For Si experiments blood glucose was determined only at 15 minutes. Glucose tolerance graphs were generated by blotting mean±standard error of the mean (SEM) of the recorded glucose data per mouse per minute collection time. […]

The subject of test [3] is diabetic and prediabetic mice. Briefly: Body weight in diabetic and prediabetic NOD mice. The class given is in vivo, mouse. Particulars: throughout the study period; FIG. 19A. The method, then:
Fifty four NOD mice at the prediabetic and early diabetic stages were carefully selected to match the criteria of being 2 standard deviation heavier in body weight than their age-matched normoglycemic control mice and having blood glucose value of >14.9 mM/1 during the glucose tolerance test. The selected mice were 9 weeks old and were treated with 0.1 mg/kg q2d of tacrolimus (Prograf (5 mg/ml), Astellas) subcutaneously administered in 0.2 ml saline for three weeks after which animals were mated to males of the same strain (See FIG. 1). Vehicle (0.2 ml saline, s.q.) treated hyperglycemic NOD female mice were allowed two weeks in diabetes before they were mated to males of the same strain. Facial (mandibular) venous blood samples were collected from treated animals at 24 and 48 hours between injections and at pregnancy days 0.5, 2.5, 4.5, 6.5, 8.5, 10.5, 12.5, 14.5, 16.5 and 18.5 respectively following a standard procedure for facial bleed in mice (Golde et al Lab Anim (NY) 2005 34:39-43).

For test [4], the system named is type 2 diabetes NZO mouse model. Briefly: HOMA-IR, HOMA-B and insulin sensitivity index (Si). The class given is in vivo. The method, then: Female mice were administered tacrolimus (0.1 mg/kg or 0.05 mg/kg, n=6/group), vehicle (n=10), pimecrolimus (0.1 mg/kg, n=6) or sirolimus (0.1 mg/kg, n=6) subcutaneously every other day for 3 weeks.
HOMA IR=fasting glucose (mmol/L)×fasting insulin ([…])/22.5 according to the method of Bonora E et al., 2000. Pancreatic β-Cell function (HOMA-B) was calculated according to the method of Tresaco B et al., 2005, HOMA-B=[20×[…]). Insulin sensitivity (Si) was determined according to the method of Matthews D et al., 1985. Si=[basal glucose]−[glucose 15 min]/15).

The structures appear in SMILES notation.

Take `C=CC[C@@H]1/C=C(\C)C[C@H](C)C[C@H](OC)[C@H]2O[C@@](O)(C(=O)C(=O)N3CCCC[C@H]3C(=O)O[C@H](/C(C)=C/[C@@H]3CC[C@@H](O)[C@H](OC)C3)[C@H](C)[C@@H](O)CC1=O)[C@H](C)C[C@@H]2OC` [tacrolimus]: in test [1], the “follicular growth pattern in the ovaries” value is on record as “restored follicular growth pattern”. In addition, the ovarian cyst formation result in test [1] (p<0.001) is “inhibited the development of ovarian cysts”. Also, the ovarian follicular atresia result in test [1] (vs untreated HFD-NZO) is recorded as “significantly inhibited ovarian follicular atresia (p<0.01)”. For the same molecule, the glucose tolerance entry in test [2] is recorded as “restored normal glucose tolerance”. For the same molecule, the body weight gain entry in test [3] is on record as “maintained normal body weight gain”. In test [4] (p<0.001 vs vehicle), the “insulin resistance (HOMA-IR)” value is “significantly reduced insulin resistance”. Also, the “insulin sensitivity (Si)” value in test [4] (p<0.01 vs vehicle) was “enhanced insulin sensitivity”. Also, the “pancreatic β-cell function (HOMA-B)” value in test [4] (p<0.05 vs vehicle) is “enhanced pancreatic β-cell function”.
